Data taken from BigSolDB 2.1.

Cc1c(N(C)CS(=O)(=O)[O-])c(=O)n(-c2ccccc2)n1C.O.[Na+]
solubility (mole fraction)
Settings	in acetone	in ethanol	in ethyl acetate	in isopropanol	in methanol	in methyl acetate	in n-butanol	in n-propanol	in sec-butanol	in water
293.15 K	0.0001	0.0032	0.0001	0.0003	0.0278	0.0001	0.0003	0.0011	0.0002	0.0538
298.15 K	0.0001	0.0037	0.0001	0.0004	0.0318	0.0001	0.0004	0.0013	0.0003	0.0576
303.05 K	0.0002	0.0042	0.0001	0.0005	0.0363	0.0001	0.0005	0.0016	0.0004	0.0615
308.05 K	0.0002	0.0049	0.0002	0.0006	0.0408	0.0001	0.0007	0.0019	0.0006	0.0656
313.05 K	0.0003	0.0056	0.0002	0.0008	0.0475	0.0002	0.0009	0.0023	0.0007	0.0697
318.05 K	0.0003	0.0064	0.0003	0.0009	0.0521	0.0002	0.0012	0.0028	0.001	0.0738
323.05 K	0.0004	0.0073	0.0003	0.0011	0.058	0.0003	0.0015	0.0034	0.0013	0.0782
327.95 K	0.0005	0.0082	0.0004	0.0014	0.0634	0.0004	0.0019	0.004	0.0016	0.0825
332.85 K	0.0006	0.0092	0.0005	0.0016	0.0688	0.0005	0.0024	0.0047	0.0021	0.087
